Results from patent publication US20230279025A1, “KRAS G12D INHIBITORS” (Mirati Therapeutics, Inc., priority 2020, published 2023).

The compounds below were run against KRas G12D (Homo sapiens (Human), UniProt P01116, G12D) (assay: KRas G12D Binding Assay (TR-FRET displacement of Cy5 labelled tracer)). Details: GDP-loaded KRAS G12D (amino acids 1:169), 60 minute incubation at 22° C.
Procedure: After a 60 minute incubation at 22° C., the reaction was measured using a PerkinElmer EnVision multimode plate reader via TR-FRET dual wavelength detection, and the percent of control (POC) calculated using a ratiometric emission factor. […] The POC values were fit to a 4-parameter logistic curve and the IC50 value was determined as the concentration where the curve crosses 50 POC.
ND stands for “not determined.”

KRas G12D, sequence (P01116 other isoform, or with tags, fused parts or gaps G12D): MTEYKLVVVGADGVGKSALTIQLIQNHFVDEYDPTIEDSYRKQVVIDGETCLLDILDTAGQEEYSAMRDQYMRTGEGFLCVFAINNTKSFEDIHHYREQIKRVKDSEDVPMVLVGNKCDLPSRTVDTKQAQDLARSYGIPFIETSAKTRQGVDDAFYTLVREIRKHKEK

Q: Which IC50 does the source give for `Fc1c(-c2cnccc2C(F)(F)F)ncc2c(N3CC4CCC(C3)N4)nc(OC[C@@]34CCCN3C[C@H](F)C4)nc12` (stereo in doubt) [Example 415, 4-((1R,5S)-3,8-diazabicyclo[3.2.1]octan-3-yl)-8-fluoro-2-((2-fluorotetrahydro-1H-pyrrolizin-7a(5H)-yl)methoxy)-7-(4-(trifluoromethyl)pyridin-3-yl)pyrido[4,3-d]pyrimidine] here?
A: 2580 nM

Q: `CC(C)Oc1ccccc1-c1ncc2c(N3CC4CCC(C3)N4)nc(OC[C@@]34CCCN3C[C@H](F)C4)nc2c1F` (stereo in doubt) [Example 416, 4-((1R,5S)-3,8-diazabicyclo[3.2.1]octan-3-yl)-8-fluoro-2-((2-fluorotetrahydro-1H-pyrrolizin-7a(5H)-yl)methoxy)-7-(2-isopropoxyphenyl)pyrido[4,3-d]pyrimidine] was tested. Which IC50 did it give?
A: 1950 nM

Q: For `CC(C)Cc1ccccc1-c1ncc2c(N3CC4CCC(C3)N4)nc(OC[C@@]34CCCN3C[C@H](F)C4)nc2c1F` (stereo in doubt) [Example 417, 4-((1R,5S)-3,8-diazabicyclo[3.2.1]octan-3-yl)-8-fluoro-2-((2-fluorotetrahydro-1H-pyrrolizin-7a(5H)-yl)methoxy)-7-(2-isobutylphenyl)pyrido[4,3-d]pyrimidine], which IC50 is on record?
A: 595 nM

Q: `CN1CCC[C@H]1COc1nc(N2CC3C[C@@H](O)C(C2)N3)c2cnc(-c3cc(O)cc4ccccc34)c(F)c2n1` (stereo partly drawn) [Example 31, 3-(8-fluoro-7-(3-hydroxynaphthalen-1-yl)-2-(((S)-1-methylpyrrolidin-2-yl)methoxy)pyrido[4,3-d]pyrimidin-4-yl)-3,8-diazabicyclo[3.2.1]octan-6-ol] was tested. Which IC50 did it give?
A: 1.6 nM

Q: `O[C@@H]1C[C@@H]2CN(c3nc(OCCc4ccc(F)cn4)nc4c(F)c(-c5cccc6cccc(Cl)c56)ncc34)C[C@H]1N2` [Example 32, (1R,5R,6R)-3-(7-(8-chloronaphthalen-1-yl)-8-fluoro-2-(2-(5-fluoropyridin-2-yl)ethoxy)pyrido[4,3-d]pyrimidin-4-yl)-3,8-diazabicyclo[3.2.1]octan-6-ol] was tested. Which IC50 did it give?
A: 2140 nM

Q: Which IC50 does the source give for `Oc1cc(-c2ncc3c(N4C[C@H]5CC[C@@H](C4)N5)nc(OCC45CCCN4CCC5)nc3c2F)c2c(Cl)cccc2c1` [Example 36, 4-(4-((1R,5S)-3,8-diazabicyclo[3.2.1]octan-3-yl)-8-fluoro-2-((tetrahydro-1H-pyrrolizin-7a(5H)-yl)methoxy)pyrido[4,3-d]pyrimidin-7-yl)-5-chloronaphthalen-2-ol] here?
A: 0.4 nM

Q: How did the IC50 turn out when `O=Cc1cc(CCOc2nc(N3C[C@H]4CC[C@@H](C3)N4)c3cnc(-c4cccc5cccc(Cl)c45)c(F)c3n2)ccc1O` [Example 62, 5-(2-((4-((1R,5S)-3,8-diazabicyclo[3.2.1]octan-3-yl)-7-(8-chloronaphthalen-1-yl)-8-fluoropyrido[4,3-d]pyrimidin-2-yl)oxy)ethyl)-2-hydroxybenzaldehyde] was run?
A: 8410 nM

Q: `CN1CCC[C@H]1COc1nc(N2C[C@H]3CC[C@@H](C2)N3)c2cnc(-c3cc(O)cc4cccc(Cl)c34)c(F)c2n1` [Example 63, 4-(4-((1R,5S)-3,8-diazabicyclo[3.2.1]octan-3-yl)-8-fluoro-2-(((S)-1-methylpyrrolidin-2-yl)methoxy)pyrido[4,3-d]pyrimidin-7-yl)-5-chloronaphthalen-2-ol] was tested. Which IC50 did it give?
A: 0.4 nM

Q: How did the IC50 turn out when `CC(C)(C)[Si](C)(C)OCC1CCC2(COc3nc(N4C[C@H]5CC[C@@H](C4)N5)c4cnc(-c5cccc6cccc(Cl)c56)c(F)c4n3)CCCN12` (stereo partly drawn) [Example 64, 4-((1R,5S)-3,8-diazabicyclo[3.2.1]octan-3-yl)-2-((3-(((tert-butyldimethylsilyl)oxy)methyl)tetrahydro-1H-pyrrolizin-7a(5H)-yl)methoxy)-7-(8-chloronaphthalen-1-yl)-8-fluoropyrido[4,3-d]pyrimidine] was run?
A: 3.3 nM

Q: With `O=C1CCC2(COc3nc(N4C[C@H]5CC[C@@H](C4)N5)c4cnc(-c5cccc6cccc(Cl)c56)c(F)c4n3)CCCN12` (stereo partly drawn) [Example 83, 7a-(((4-((1R,5S)-3,8-diazabicyclo[3.2.1]octan-3-yl)-7-(8-chloronaphthalen-1-yl)-8-fluoropyrido[4,3-d]pyrimidin-2-yl)oxy)methyl)hexahydro-3H-pyrrolizin-3-one bis(2,2,2-trifluoroacetate)] as the compound, how does the IC50 read?
A: 8690 nM

Q: With `Fc1c(-c2cccc3cccc(Cl)c23)ncc2c(N3C[C@H]4CC[C@@H](C3)N4)nc(OCC34CCCN3CC(F)(F)C4)nc12` (stereo partly drawn) [Example 93, 4-((1R,5S)-3,8-diazabicyclo[3.2.1]octan-3-yl)-7-(8-chloronaphthalen-1-yl)-2-((2,2-difluorotetrahydro-1H-pyrrolizin-7a(5H)-yl)methoxy)-8-fluoropyrido[4,3-d]pyrimidine bis(2,2,2-trifluoroacetate)] as the compound, how does the IC50 read?
A: 105 nM

Q: How did the IC50 turn out when `Fc1ccc2cccc(-c3ncc4c(N5C[C@H]6CC[C@@H](C5)N6)nc(OCC56CCCN5CCC6)nc4c3F)c2c1Cl` [Example 98, 4-((1R,5S)-3,8-diazabicyclo[3.2.1]octan-3-yl)-7-(8-chloro-7-fluoronaphthalen-1-yl)-8-fluoro-2-((tetrahydro-1H-pyrrolizin-7a(5H)-yl)methoxy)pyrido[4,3-d]pyrimidine bis(2,2,2-trifluoroacetate)] was run?
A: 1 nM

Q: Which IC50 does the source give for `CC1(N)CN(c2nc(N3C[C@H]4CC[C@@H](C3)N4)c3cnc(-c4cccc5cccc(Cl)c45)c(F)c3n2)C1` [Example 125, 1-(4-((1R,5S)-3,8-diazabicyclo[3.2.1]octan-3-yl)-7-(8-chloronaphthalen-1-yl)-8-fluoropyrido[4,3-d]pyrimidin-2-yl)-3-methylazetidin-3-amine] here?
A: 668 nM

Q: `CCC1(N)CN(c2nc(N3C[C@H]4CC[C@@H](C3)N4)c3cnc(-c4cccc5cccc(Cl)c45)c(F)c3n2)C1` [Example 128, 1-(4-((1R,5S)-3,8-diazabicyclo[3.2.1]octan-3-yl)-7-(8-chloronaphthalen-1-yl)-8-fluoropyrido[4,3-d]pyrimidin-2-yl)-3-ethylazetidin-3-amine] was tested. Which IC50 did it give?
A: 501 nM

Q: For `Fc1c(-c2cccc3cccc(Cl)c23)ncc2c(N3C[C@H]4CC[C@@H](C3)N4)nc(OCCC3CC(F)(F)C3)nc12` [Example 129, 4-((I R,5S)-3,8-diazabicyclo[3.2.1]octan-3-yl)-7-(8-chloronaphthalen-1-yl)-2-(2-(3,3-difluorocyclobutyl)ethoxy)-8-fluoropyrido[4,3-d]pyrimidine], which IC50 is on record?
A: 4090 nM

Q: How did the IC50 turn out when `Fc1c(-c2cccc3cccc(Cl)c23)ncc2c(N3C[C@H]4CC[C@@H](C3)N4)nc(N3CC4(CCN4)C3)nc12` [Example 130, 4-((1R,5S)-3,8-diazabicyclo[3.2.1]octan-3-yl)-7-(8-chloronaphthalen-1-yl)-8-fluoro-2-(1,6-diazaspiro[3.3]heptan-6-yl)pyrido[4,3-d]pyrimidine] was run?
A: 1650 nM

Q: How did the IC50 turn out when `Fc1c(-c2cccc3cccc(Cl)c23)ncc2c(N3C[C@H]4CC[C@@H](C3)N4)nc(OC[C@@H]3CCCO3)nc12` [Example 136, 4-((1R,5S)-3,8-diazabicyclo[3.2.1]octan-3-yl)-7-(8-chloronaphthalen-1-yl)-8-fluoro-2-(((S)-tetrahydrofuran-2-yl)methoxy)pyrido[4,3-d]pyrimidine] was run?
A: 5150 nM

Q: Which IC50 does the source give for `Fc1c(-c2cccc3cccc(Cl)c23)ncc2c(N3C[C@H]4CC[C@@H](C3)N4)nc(OC[C@H]3CCCO3)nc12` [Example 137, 4-((1R,5S)-3,8-diazabicyclo[3.2.1]octan-3-yl)-7-(8-chloronaphthalen-1-yl)-8-fluoro-2-(((R)-tetrahydrofuran-2-yl)methoxy)pyrido[4,3-d]pyrimidine] here?
A: 2630 nM
